In patent publication US20030170297A1, “Lipid-based drug delivery systems containing phospholipase a2 degradable lipid derivatives for topical application to the skin” (priority 2000, published 2003):
Values joined by “and” are separate entries in the source; they are usually repeats but may differ in a detail not shown here. Equal entries are not always repeated.

Tests used:
[1] = biological target: T1, Snake venom PLA2 (Agkistrodon piscivorus piscivorus) (Agkistrodon piscivorus piscivorus, UniProt P51972); assay: PLA2-controlled calcein release across non-hydrolysable D-O-SPC target membrane (micelle or liposome carriers); type: biochemical
T1 construct: This PLA2 enzyme belongs to the class of low-molecular weight 14 kD secretory enzymes; from tissue; host or cells: snake venom of Agkistrodon piscivorus piscivorus
T1 sequence (P51972 1-123): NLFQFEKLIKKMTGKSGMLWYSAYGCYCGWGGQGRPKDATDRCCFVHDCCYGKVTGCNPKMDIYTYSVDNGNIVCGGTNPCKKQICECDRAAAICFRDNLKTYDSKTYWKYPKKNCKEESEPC
Procedure: Multilamellar model membrane target liposomes were made in the presence of fluorescent calcein in a self-quenching concentration of 20 mM by hydrating a film of 1,2-O-dioctadecyl-sn-glycero-3-phosphatidylcholines (D-O-SPC) in a HEPES buffer solution at pH=7.5 for one hour at 10° C. above the phase transition temperature (Tm=55° C.). Unilamellar liposomes were made by extruding the multilamellar liposomes ten times through two stacked 100 nm polycarbonate filters. The unilamellar liposomes were rapidly cooled to a temperature below the transition temperature, and the calcein-containing liposomes were separated from free calcein using a chromatographic column packed with Sephadex G-50. […] (1-O-DPPE-PEG350), di-octadecanoyl-sn-glycero-3-phosphoethanolamine-N-[methoxy(polyethylene glycol)-750 (DSPE-PEG750). were prepared as described in example 6. Calcein release from the target liposomes is determined by measuring the fluorescent intensity at 520 nm after excitation at 492 nm.
The concentrations of D-O-SPC and polymer-lipid micelles were 25 μM. Snake venom PLA2 (Agkistrodon piscivorus piscivorus) was added (25 nM) to initiate the hydrolytic reaction leading to instant formation of the polymer-lyso-1-O-DPPE and the free fatty acid hydrolysis products. […] The percentage of calcein released is determined as described in example 3.
The experimental model system consists of a negatively charged liposome carrier and a model target membrane. The carrier is a 100 nm unilamellar liposome made of dipalmitoyl phosphatidylcholine lipids (DPPC) with small amounts (2.5 mol %) of negatively charged lipid of the type dipalmitoyl phosphatidylethanolamine (DPPE)—PEG2000. The target membrane is another liposome made of 1,2-O-dioctadecyl-sn-glycero-phosphatidylcholine (D-O-SPC) which is a phospholipid where the acyl linkages of the stearoyl chains are ether bonds. In contrast to DPPC, D-O-SPC is inert towards PLA2-catalysed hydrolysis thereby mimicking the stability of an intact target cell membrane toward degradation by its own enzymes. This experimental assay, which permits simultaneous as well as separate investigation of the effect of destabilisers at the carrier liposomes and the effect of enhancers at the target membrane, involves entrapment of a water-soluble fluorescent calcein model drug in a self-quenching concentration, in the interior of the non-hydrolysable target liposome, rather than in the carrier liposome. The enhanced level of extracellular PLA2 at the target membrane can then be simulated by adding extracellular PLA2 to initiate the hydrolytic reaction in a suspension of the carrier and target liposomes. The permeation of calcein across the D-O-SPC target membrane is subsequently monitored by the increase in fluorescence. In order to investigate the effect of the presence of small amounts of negatively charged lipids in the carrier liposome, a similar experiment was performed with conventional bare DPPC liposomes. Furthermore, in order to compare and discriminate the permeability enhancing effect of lyso-phospholipids from that of free fatty acids, experiments without enzymes were carried out where lyso-phospholipids and free fatty acids were added simultaneously or separately to the target liposomes.
DPPC, DCPC, D-O-SPC, and DPPE-PEG2000 were obtained from Avanti Polar Lipids. Purified snake venom PLA2 (Agkistrodon piscivorus piscivorus) was a generous gift from dr. R. L. Biltonen. This PLA2 enzyme belongs to the class of low-molecular weight, 14 kD secretory enzymes which display structural similarity to human extracellular phospholipase A2.

[2] = biological target: T2, phospholipase A2 (PLA2 from Agikistrodon piscivorus piscivorus) (Agkistrodon piscivorus piscivorus, UniProt P51972); assay: PLA2 reaction time profile, lag-time and HPLC percent hydrolysis of unilamellar liposomes; type: biochemical; conditions: FIG. 3, liposomes composed of 1-O-DPPC, after PLA2 addition
T2 construct: This PLA2 enzyme belongs to the class of low-molecular weight 14 kD secretory enzymes; from tissue; host or cells: snake venom of Agkistrodon piscivorus piscivorus
T2 sequence (P51972 1-123): T1 sequence (P51972 1-123)
Procedure: Phospholipase A2 reaction profile and lag time measurements Purified snake-venom phospholipase A2 (PLA2 from Agikistrodon piscivorus piscivorus) has been isolated according to the procedure of Maraganore et al., J. Biol. Chem. 259, 13839-13843. […] Assay conditions for the PLA2 reaction time profile shown in FIG. 2 and the lag-time and percent hydrolysis reported in Table 1 were: 0.15 mM unilamellar liposomes, 150 nM PLA2, 150 mM KCL, 10 mM HEPES (pH 7.5), 1 mM NaN3, 30 μM CaCl2, and 10 μM EDTA.
Lag-time and percent hydrolysed 1-O-DPPC at 41° C. as determined by HPLC. The lipid concentration was 0.150 mM in a 10 mM HEPES-buffer (pH=7.5).
The catalytic reaction was initiated by adding 8.9 μL of a 42 μM PLA2 (150 nM) stock solution to 2.5 ml of the thermostated liposome suspension (0.150 mM) equilibrated for 800 sec prior to addition of PLA2. The characteristic lag-burst behaviour of PLA2 towards the liposomes is signalled by a sudden increase in the intrinsic fluorescence from PLA2 at 340 nm after excitation at 285 nm followed by a concomitant decrease in the 90° light scattering from the lipid suspension (Hønger et al., Biochemistry 35, 9003-9006). […] The turnover of the PLA2 catalysed lipid hydrolysis of 1-O-DPPC to lyso-1-O-PPC was measured by HPLC (see Table 1). […]

[3] = Calcein release across target membrane on adding lyso-phospholipid and fatty acid in the absence of PLA2; conditions: absence of PLA2, 25 μM target membranes, 39° C., FIG. 12
Excerpt: The experimental model system consists of a negatively charged liposome carrier and a model target membrane. The carrier is a 100 nm unilamellar liposome made of dipalmitoyl phosphatidylcholine lipids (DPPC) with small amounts (2.5 mol %) of negatively charged lipid of the type dipalmitoyl phosphatidylethanolamine (DPPE)—PEG2000. The target membrane is another liposome made of 1,2-O-dioctadecyl-sn-glycero-phosphatidylcholine (D-O-SPC) which is a phospholipid where the acyl linkages of the stearoyl chains are ether bonds. In contrast to DPPC, D-O-SPC is inert towards PLA2-catalysed hydrolysis thereby mimicking the stability of an intact target cell membrane toward degradation by its own enzymes. […] The permeation of calcein across the D-O-SPC target membrane is subsequently monitored by the increase in fluorescence. […]
Multilamellar target liposomes in the presence of fluorescent calcein in a self-quenching concentration of 20 mM were made by hydrating a film of D-O-SPC in a HEPES buffer solution at pH=7.5 for one hour at 10° C. above the phase transition temperature Tm=55° C. […] Calcein release from the target liposomes is determined by measuring the fluorescent intensity at 520 nm after excitation at 492 nm. […]

[4] = biological target: T3, phospholipase A2 (A. piscivorus piscivorus) (Agkistrodon piscivorus piscivorus, UniProt P51972)
T3 sequence (P51972 1-123): T1 sequence (P51972 1-123)
Procedure: The hydrolysis of micelles composed DSPE-PEG750 was followed by analysis of the amount of stearic acid generated. The catalytic reaction was initiated by adding 8.9 μL of a 42 μM PLA2 (150 nM) stock solution to 2.5 ml a thermostated micelle suspension of DSPE-PEG750 (0.150 mM) equilibrated at 45° C. for 600 seconds prior to addition of PLA2. The characteristic burst behaviour of PLA2 towards the micelles is signalled by a sudden increase in the intrinsic fluorescence from PLA2 at 340 nm after excitation at 285 nm followed by a concomitant decrease in the 90° light scattering from the lipid suspension (Hønger et al., Biochemistry 35, 9003-9006). Samples for HPLC analysis of the amount of stearic acid generated were taken before adding PLA2 and 100 sec after the observed lag-time. […] HPLC analysis was made using a 5 μm diol column, a mobile phase composed of chloroform/methanol/water (730:230:30, v/v) and an evaporative light scattering detector (see example 2).

## 1—hexadecyl-2-hexadecanoyl-sn-glycero-3-phosphoethanolamine-N-[methoxy(poly-ethylene glycol)-2000] [DPPE-PEG2000]
[1]; DPPC + 2.5 mol % DPPE-PEG2000 carriers, 37° C.
  rate of release of calcein across target membrane versus bare DPPC carriers: dramatically enhanced
[1]; DPPC carrier liposomes with 2.5 mol % DPPE-PEG2000, 37° C.
  change of lag time versus bare DPPC carriers: dramatic decrease in the lag time

## CCCCCCCCCCCCCCCCOC[C@H](COP(=O)([O-])OCC[N+](C)(C)C)OC(=O)CCCCCCCCCCCCCCC [1-O-DPPC]
[2]
  amount of 1-O-DPPC after the lag-burst (HPLC; 100% before PLA2): 21%

## CCCCCCCCCCCCCCCCCCOC[C@H](COP(=O)([O-])OCC[N+](C)(C)C)OCCCCCCCCCCCCCCCCCC [D-O-SPC, 1,2-O-dioctadecyl-sn-glycero-3-phosphatidylcholines]
[1]; target membrane lipid
  behaviour towards PLA2-catalysed hydrolysis: inert

## CCCCCCCCCC(=O)OC[C@H](COP(=O)([O-])OCC[N+](C)(C)C)OC(=O)CCCCCCCCC [DCPC, didecanoyl phosphatidylcholine]
[1]; small amount of DCPC in carrier PEG-liposomes, FIG. 11a
  calcein release across target membrane with short-chain phospholipid in carrier PEG-liposomes: very fast

## CC(C)CCC[C@@H](C)[C@H]1CC[C@H]2[C@@H]3CC=C4C[C@@H](O)CC[C@]4(C)[C@H]3CC[C@]12C [cholesterol]
[1]; large amount (≈20 mol %) incorporated into liposomes, data not shown
  effect on extracellular PLA2 activity: deactivated
[1]; small amount (≈3 mol %) in liposomes
  effect on extracellular PLA2 activity: activates

## CCCCCCCCCCCCCCCC(=O)O [fatty acid, palmitic acid]
[3]
  rate of calcein release across the target membrane, added separately: increased rate of calcein release

## di-octadecanoyl-sn-glycero-3-phosphoethanolamine-N-[methoxy(polyethylene glycol)-750 [DSPE-PEG750]
[4]; 0.150 mM DSPE-PEG750 micelles, 150 nM PLA2, 45° C.
  amount of stearic acid generated by hydrolysis: 0.156 mM and 0.157 mM
[4]; 0.150 mM micelles, 150 nM PLA2, 45° C., 100 sec after lag time
  hydrolysis of DSPE-PEG750 to lyso-DSPE-PEG750 and stearic acid: 100%
[4]; DSPE-PEG750 micelles 0.150 mM, 45° C.
  observed lag time: 10 s
